The source of these data is patent publication US20050026836A1, “Composition for the treatment of damaged tissue” (priority 1999, published 2005).

Type in all cases: biochemical
The target in assay [1] is T1, MMP-13 (Homo sapiens, UniProt P45452).
T1 construct: made in house
The experiment in a line: Reduction of MMP-13-catalysed degradation of KGF-2. The note with it: MMP-13 / KGF-2, read-out: Percentage inhibition of proteolysis.

Assay [2] concerns the target T2, catalytic domain human MMP-14 (Homo sapiens, UniProt P50281).
T2 construct: made in house
The experiment in a line: MMP-14 fluorogenic inhibition assay. The note with it: read-out: Calculated Ki(nM) MMP-14. Here is the method:
All enzymes were pre-activated at 37° C. with aminophenylmercuric acetate (APMA) or trypsin before being made up to the final concentrations used in the assay. MMP-1 (30 nM) was activated with 0.93 mM APMA for 20 minutes, MMP-2 (30 nM) was activated with 1.32 mM APMA for 1 hour, MMP-3 (1010 nM) was activated with 1.81 mM APMA for 3 hours or heat activated at 55° C. for three hours, MMP-9 (100 nM) was activated with 2 mM APMA for 2 hours, human MMP-13 (100 nM) was activated with 2 mM APMA for 2 hours, and MMP-14 (900 nM) was activated with 0.9 ng/ml trypsin for 25 minutes, followed by the addition of 4.5 ng/ml trypsin inhibitor.
For MMP-1, the assay buffer used was 50 mM Tris, 200 mM NaCl, 5 mM CaCl2, 20 μM ZnCl2, 0.05% (w/v) Brij 35, pH 7.5. […] For MMP-13, the assay buffer used was 50 mM Tris, pH 7.5, 200 mM NaCl, 5 mM CaCl2, […] and 0.02% (w/v) Brij 35. For MMP-14, the assay buffer used was 50 mM Tris, 100 mM NaCl, 10 mM CaCl2, 0.25% (w/v) Brij 35, pH 7.5.
MMP-14 inhibition was assayed by incubating activated catalytic domain human MMP-14 at 1 nM in assay buffer with 10 μM Mca-Pro-Leu-Gly-Leu-Dpa-Ala-Arg-NH2 and six concentrations of inhibitor. The incubation was performed at 37° C. for 60 minutes.
The final assay concentrations of inhibitors used in the MMP-1 assays to determine Ki were 50, 40, 30, 20, 10 and 5 μM. For MMP-2, the final assay concentrations of inhibitors used were 1000, 800, 600, 400, 200 and 100 nM. For MMP-3, the final assay concentrations of inhibitors used were 5, 4, 3, 2, 1 and 0.5 nM. For MMP-9 and MMP-14, the final assay concentrations of inhibitors used were 5, 4, 3, 2, 1 and 0.5 μM.
All assays were carried out in a black 96-well plate with a final volume of 100 μl in each well. Inhibitors were dissolved in dimethylsulphoxide (DMSO) to 1 mM. […] For MMP-2, MMP-3, MMP-9 and MMP-14, fluorescence was read every 2 minutes at […] and 393 nm γem for 1 hour using a Fluorostar fluorimeter (BMG) with BIOLISE software. For MMP-1 assays, the filters used were 355 nm γex and 440 nm γem; fluorescence was read every 2 minutes for 1 hour. […]

For assay [3], the target named is T3, catalytic domain of human MMP-3 (Homo sapiens, UniProt P08254).
T3 construct: made in house
As to the kind of experiment: MMP-3 fluorogenic inhibition assay. On the procedure: (§1) All enzymes were pre-activated at 37° C. with aminophenylmercuric acetate (APMA) or trypsin before being made up to the final concentrations used in the assay.
(§2) For MMP-1, the assay buffer used was 50 mM Tris, 200 mM NaCl, 5 mM CaCl2, 20 μM ZnCl2, 0.05% (w/v) Brij 35, pH 7.5. […] For MMP-13, the assay buffer used was 50 mM Tris, pH 7.5, 200 mM NaCl, 5 mM CaCl2, […] and 0.02% (w/v) Brij 35.
(§3) MMP-2, MMP-3 and MMP-9 inhibition was assayed by incubating activated catalytic domain of human MMP-2, MMP-3 and MMP-9 at 1 nM in assay buffer with 5 μM substrate Mca-Arg-Pro-Lys-Pro-Tyr-Ala-Nva-Trp-Met-Lys(Dnp)-NH2, and six different concentrations of inhibitor. The incubation was performed at 37° C. for 60 minutes.
(§4) For MMP-2, the final assay concentrations of inhibitors used were 1000, 800, 600, 400, 200 and 100 nM. For MMP-3, the final assay concentrations of inhibitors used were 5, 4, 3, 2, 1 and 0.5 nM. For MMP-9 and MMP-14, the final assay concentrations of inhibitors used were 5, 4, 3, 2, 1 and 0.5 μM.
All assays were carried out in a black 96-well plate with a final volume of 100 μl in each well. Inhibitors were dissolved in dimethylsulphoxide (DMSO) to 1 mM. Solutions were then serially diluted in buffer to give the final concentrations shown.
These were estimated using the following equation: IC50=(Ki*[…], where S is the substrate concentration and Km the Michaelis-Menton coefficient. Serine Protease Assays

Assay [4] has as its target catalytic domain of human MMP-2 (Homo sapiens, UniProt P08253). The experiment in a line: MMP-2 fluorogenic inhibition assay. The note with it: read-out: Calculated Ki(nM) MMP-2. On the procedure:
as §1, §2, §3, §4
All assays were carried out in a black 96-well plate with a final volume of 100 μl in each well. Inhibitors were dissolved in dimethylsulphoxide (DMSO) to 1 mM. Solutions were then serially diluted in buffer to give the final concentrations shown. […]

A word on the inhibition: it is the percentage by which the read-out fell short of the control. As a reminder, the Ki is a measure of affinity in units of concentration, obtained from inhibition or displacement.

T3 sequence (P08254 100-272 limits assumed): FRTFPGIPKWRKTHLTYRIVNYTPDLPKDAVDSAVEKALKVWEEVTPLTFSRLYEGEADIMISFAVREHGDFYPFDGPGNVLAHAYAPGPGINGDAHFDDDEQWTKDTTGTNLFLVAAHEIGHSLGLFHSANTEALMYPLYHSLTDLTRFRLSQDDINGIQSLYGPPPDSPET
Sequence of catalytic domain of human MMP-2 (P08253 with tags, fused parts or gaps DEL222-396 limits assumed): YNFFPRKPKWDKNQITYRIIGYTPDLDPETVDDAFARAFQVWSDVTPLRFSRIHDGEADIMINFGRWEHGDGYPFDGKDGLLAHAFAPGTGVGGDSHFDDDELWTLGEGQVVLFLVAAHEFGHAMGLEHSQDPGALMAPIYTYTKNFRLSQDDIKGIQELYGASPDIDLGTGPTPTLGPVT

For the compound `COC[C@@H](NC(=O)[C@@H](NC(=O)[C@H](CCCc1ccc(-c2cccc(OC)c2)c(C)c1)CC(=O)O)C(C)(C)C)c1ccccc1` [compound 9454, (3R)-3-({[(1S)-2,2-Dimethyl-1-({[(1S)-2-methoxy-1-phenylethyl]amino}carbonyl)propyl]amino}carbonyl)-6-(3′-methoxy-2-methylbiphen-4-yl)hexanoic acid], the inhibition at 0.1 µM in assay [1] (inhibitor 0.1 μM) turned out to be 1.6%. Moreover, the inhibition at 1 µM in assay [1] (inhibitor 1 μM) turned out to be 10%. Further, the inhibition at 10 µM in assay [1] (inhibitor 10 μM) stood at 23.7%. Also, the inhibition at 100 µM in assay [1] (inhibitor 100 μM) came to 82.9%. In addition, the Ki was 35500 nM in assay [2], 44 nM in assay [3] (read-out: Calculated Ki(nM) MMP-3) and 35200 nM in assay [4]. The “Selectivity among MMPs (in words)” value in assay [3] (from Ki values of Table 3 (MMP-1, -2, -3, -9, -13, -14)) is recorded as “selective MMP-3 inhibitor”.
